# Source: US20230382871A1, “CSF1R KINASE INHIBITOR AND USE THEREOF” (SHANGHAI INSTITUTE OF MATERIA MEDICA, CHINESE ACADEMY OF …, priority 2020, published 2023)
# Values joined by “and” are separate entries in the source; they are usually repeats but may differ in a detail not shown here. Equal entries are not always repeated.
# How the values were obtained:
# [1] = test system: phosphorylated AKT (p-AKT) in BMDM; test: Western blot of CSF1-stimulated AKT phosphorylation in BMDM; type: cell-based; settings: Mus musculus, 100 nM, 2 h, CSF1 50 ng/mL 15 min
# Method: (§1) Bone marrow-derived macrophages, after induction by CSF1 for 5 to 7 days, were centrifuged to remove the previous medium. 2 mL of a serum-free medium was added. […] CSF1 factor was added at a final concentration of 50 ng/mL for stimulation for 15 minutes. The culture medium was discarded, and cells were washed three times with pre-cooled PBS. Then, the cells were lysed by adding 1×SDS gel loading buffer. The cell lysates were heated in a boiling water bath for 15 min, and then stored at −20° C.
# (§2) A protein sample as described above was subjected to SDS-PAGE electrophoresis. Then, the protein was transferred to a nitrocellulose membrane using a semi-dry electrotransfer system. The nitrocellulose membrane was placed in a blocking solution (5% skim milk in TBS-T) and incubated for 2 h at room temperature. Then, the membrane was allowed to react with a primary antibody overnight at 4° C. After the membrane was washed with TBS-T for three times with 15 min each time, the membrane was allowed to react in a secondary antibody dilution at room temperature for 1-2 h. […]
# (§3) The inhibitory effect of Compound I on CSF1R and its signaling pathway in mouse primary macrophages was detected by immunoblotting assays. Each experiment was independently repeated three times and all experimental results were quantified. […]
# [2] = test system: M2-type macrophage marker CD206 in HT-29 tumor tissues; test: Immunohistochemistry of M2-type macrophage marker CD206 in HT-29 tumor tissues; type: in vivo, nude mice; settings: Compound I 5, 10, 20 mg/kg; Axitinib 40 mg/kg
# Method: (§4) At the end of the in vivo experiments, U87MG and HT-29 xenografts in nude mice were removed and fixed with […] to prepare paraffin sections.
# (§5) Expression of individual proteins was assessed using multiplicative quick score method (MQS). This evaluation method takes into account both the staining intensity and the staining range. The method estimates the proportion of positive cells and gives a range score from 1 to 6 (1=1%-4%; 2=5%-19%; 3=20%-39%; 4=40%-59%; 5=60%-79%; 6=80%-100%). The average intensity score of positive stained cells was 0 to 3 (0=no staining; 1=weak staining; 2=moderate staining; 3=strong staining). The total score a (minimum 0 and maximum 18) is then calculated by multiplying the range score by the intensity score.
# For detecting the changes in the macrophage marker F4/80 and M2-type macrophage marker CD206 in the HT-29 tumor tissues, quantitative analysis (solvent: n=12, blank preparation: n=6, Compound I (5 mg/kg): n=6, Compound I (10 mg/kg): n=6, Compound I (20 mg/kg): n=6, Axitinib: n=6) was performed on all sections and the experimental data were analyzed for significant differences using the t-test. * denotes p<0.05 as compared with the blank preparation group, ** denotes p<0.01 as compared with the blank preparation group, and denotes p<0.001 as compared with the blank preparation group.
# [3] = test system: macrophage marker F4/80 in U87MG tumor tissues; test: Immunohistochemistry of macrophage marker F4/80 in U87MG tumor tissues; type: in vivo, nude mice; settings: 40 mg/kg, compared with blank preparation group
# Method: as §4, §5
# (§6) For detecting the changes in the macrophage marker F4/80 and M2-type macrophage marker CD206 in the U87MG tumor tissues, quantitative analysis (solvent: n=6, blank preparation: n=6, Compound I (10 mg/kg): n=6, Compound I (20 mg/kg): n=6, Compound I (40 mg/kg): n=6, Axitinib: n=4) was performed on all sections and the experimental data were analyzed for significant differences using the t-test. * denotes p<0.05 as compared with the blank preparation group, ** denotes p<0.01 as compared with the blank preparation group, and denotes p<0.001 as compared with the blank preparation group.
# [4] = test system: phosphorylated CSF1R (p-CSF1R) in BMDM; test: Western blot of CSF1-stimulated CSF1R phosphorylation in BMDM; type: cell-based, mouse
# Method: as §1, §2, §3
# [5] = test system: solid tumors, such as brain gliomas; test: Clinical trial, preliminary efficacy; type: in vivo; settings: particularly high-grade brain gliomas, data not shown
# [6] = test system: human glioma U87MG brain in situ transplantation; test: Survival in U87MG brain in situ transplantation model in nude mice; type: in vivo, BALB/cA nude mice; settings: for ILS (%), Increase in Life Span: vs solvent group MST
# [7] = test system: M2-type macrophage marker CD206 in U87MG tumor tissues; test: Immunohistochemistry of M2-type macrophage marker CD206 in U87MG tumor tissues; type: in vivo, nude mice
# Method: as §4, §5, §6
# [8] = test system: macrophage marker F4/80 in HT-29 tumor tissues; test: Immunohistochemistry of macrophage marker F4/80 in HT-29 tumor tissues; type: in vivo, nude mice; settings: Compound I 5, 10, 20 mg/kg; Axitinib 40 mg/kg
# Method: At the end of the in vivo experiments, U87MG and HT-29 xenografts in nude mice were removed and fixed with […] to prepare paraffin sections. Expression of individual proteins was assessed using multiplicative quick score method (MQS). This evaluation method takes into account both the staining intensity and the staining range. […] The average intensity score of positive stained cells was 0 to 3 (0=no staining; 1=weak staining; 2=moderate staining; 3=strong staining). The total score a (minimum 0 and maximum 18) is then calculated by multiplying the range score by the intensity score.
# [9] = 40 mg/kg, implantation day as Day 0
compound,measurement,setting,value
Cc1cc(NC(=O)c2cccc3cc(-c4cccc5[nH]nc(N)c45)ccc23)ccc1F [Compound I],inhibition at 0.1 µM,[1],64.4%
same,"expression of CD206, HT-29 tumor tissue",[2],inhibited the expression of F4/80 and CD206 in a dose-dependent manner
same,"expression of F4/80 in macrophages, U87MG tumor tissue",[3],significantly reduced
same,inhibition at 0.1 µM,"[4]; Mus musculus, 100 nM, 2 h, CSF1 50 ng/mL 15 min",57.3%
same,CSF1 stimulated phosphorylation levels of CSF1R and AKT,[4]; immunoblotting,inhibited in a dose-dependent manner
same,preliminary efficacy in clinical trial,[5],good therapeutic efficacy
same,"Median survival time, MST",[6]; 20 mg/kg po twice a day from Day 8,54 days and 54.0 days
same,"ILS (%), Increase in Life Span",[6]; 20 mg/kg,17.39%
same,"Median survival time, MST",[6]; 40 mg/kg po twice a day from Day 8,58.5 days
same,day of first death in the group,[6]; [9],43 days
same,day of last death in the group,[6]; [9],75 days
same,"ILS (%), Increase in Life Span",[6]; 40 mg/kg,27.17%
same,"inhibition rate of CD206 expression, U87MG tumor tissue",[7]; 10 mg/kg dose group,34.48%
same,"inhibition rate of CD206 expression, U87MG tumor tissue",[7]; 40 mg/kg dose group,70.69%
same,"expression of F4/80, HT-29 tumor tissue",[8],inhibited the expression of F4/80 and CD206 in a dose-dependent manner
